The values below come from patent US9592213B2, “Prophylactic and/or therapeutic agent for dysmenorrhea” (National University Corporation Kumamoto University, priority 2009, dated 2017).

Data set [1] in a line: Clinical study of therapeutic effect of oral administration of tranilast in dysmenorrhea patients. Type of data set: in vivo, human. Here is the method: Subject A was given 100 mg of tranilast three times a day by oral administration (300 mg per day, divided three times daily) daily for about six months starting on Sep. 1, 2008.
Menstrual pain was measured according to a numerical rating scale (NRS). In the NRS, the patient was asked to evaluate and record the degree of pain by themself by judging the degree of pain according to 11 levels ranging from level 0 indicating the absence of pain to level 10 indicating maximum pain. Menstrual blood loss was evaluated according to 5 levels ranging from level 0 indicating the absence of blood loss up to level 4 as blood loss increased.
The term “average” in the graphs indicates a value obtained by dividing the total sum of the pain level for each menstrual period by the number of days on which pain was felt.
The term “max” indicates a value of the day when the most intense pain was felt during each menstrual period.
Pain during menstruation was evaluated by the record made for each day by the patient according the 11 levels from level 0 indicating the absence of pain to level 10 indicating maximum pain in the same manner as Subjects A and B, using the NRS method.
The average values and maximum values of NRS scores indicating the intensity of pain during each menstrual period were derived, and the values were compared between the menstrual period at the start of administration and the last menstrual period during the administration period as shown in graphs of FIGS. 8A and 9A. In addition, the degrees of decrease in average values and maximum values for menstrual pain during the last menstrual period relative to the first menstrual period at the start of administration were represented as improvement rates, and are shown in FIGS. 8B and 9B.
Moreover, Subjects A, C, D, E, F and G, but excluding Subject B, underwent examinations at the facility conducting the clinical study at roughly one month intervals during the administration period, and were interviewed by a specialist in the department of gynecology. Interview findings before the start of administration and interview findings at the time of their final visit were compared and are shown in FIG. 10.

Data set [2] relates to Immortalized human retinal pigment epithelial cell line ARPE-19. The data set can be described thus: Example B1: transition of cell morphology from mesenchymal form to epithelial form after TGFβ2 and TNFα. Type of data set: cell-based. The following applies: tranilast 1 μg/ml added 48 hours after TGFβ2 5 ng/ml and TNFα 100 ng/ml, read after 96 hours. Here is the method: Immortalized human retinal pigment epithelial cell line ARPE-19 (ATCC No.: CRL-2302) was disseminated into a 96-well glass plate (EZView Culture Plate, LB Cover Glass Bottom, 96 wells, Iwaki) at 1×10^4 cells/well followed by culturing at 37° C. in a 5% CO2 environment. After 5 days, 150 μl aliquots each of DMEM-F12 (serum-free, Sigma-Aldrich) medium supplemented by 5 ng/ml of TGFβ2 and 100 ng/ml of TNFα were prepared and used to replace the original medium in the wells and cultured at 37° C. in a 5% CO2 environment.
After 48 hours, the plate was removed from the incubator followed by the addition of tranilast (1 μg/ml) and culturing at 37° C. in a 5% CO2 environment. After 96 hours, the plate was washed with PBS and the cells were fixed for 30 minutes with 4% paraformaldehyde (Wako), and after washing with PBS, were stained for 1 hour with F-actin (Alexa Fluor 568 Phalloidin, Invitrogen) and nuclei (Hoechst 33342, Invitrogen) followed by washing with PBS and then immediately photographing using a fluorescence microscope (Keyence) at a magnification factor of 40×.

The next data set has as its system EM-E6/E7/hTERT cells. The data set can be described thus: Example B2: western blotting of fibronectin and N-cadherin expression in endometrial epithelial cells. Type of data set: cell-based. The following applies: tranilast 320 μM, 80 μM, 20 μM with TGFβ2 5 ng/ml, TNFα 100 ng/ml or both, 48 hours. As for the experimental part:
Cell line EM-E6/E7/hTERT cells (EM) derived from endometrial epithelium were disseminated in a 6-well glass plate (EZView Culture Plate, LB Cover Glass Bottom, 6 wells, Iwaki) at 1×10^5 cells/well, followed by culturing for 2 days at 37° C. in an environment having a carbon dioxide concentration of 5% in DMEM/F12 medium and in the presence of 10% serum, and then culturing for 3 days after replacing the medium with serum-free DMEM/F12 medium.
Subsequently, tranilast (320 μM, 80 μM, 20 μM) was added to medium containing TGFβ2 at 5 ng/ml, TNFα at 100 ng/ml or both followed by replacing the medium. Protein was recovered 48 hours after having replaced the medium with the medium containing TGFβ2 or TNFα, and expression levels of fibronectin and N-cadherin were compared by western blotting.
Anti-fibronectin antibody (clone ID: F14, Epitomics) and anti-N-cadherin antibody (clone ID: 32/N-cadherin, BD Transduction Laboratories) were used for the antibodies.

The conditions of data set [3]: continuous infusion for 3.5 days at 7.5 mg/kg, normal adult; cited from earlier work.
The conditions of data set [4]: cited from earlier work.
Data set [5] is described as follows: Patient history: adverse effects of earlier drugs in study subjects. Type of data set: in vivo, human. The following applies: Subject I, administration from Mar. 18, 2010.
Setting [6] is: Subject A, organic dysmenorrhea, 100 mg three times a day orally, about six months.
Where [7] appears, read: Subject B, August menstrual period, 100 mg/day.
[8] abbreviates: Subject B, September menstrual period, 200 mg/day.
Setting [9] is: Subject B, after start of administration.
Setting [10] is: Subject B, functional dysmenorrhea, 100-200 mg/day orally, about six months.

“Also recorded” adds a separate entry of the source.

As for `COc1ccc(C=CC(=O)Nc2ccccc2C(=O)O)cc1OC` [Tranilast, N-(3,4-dimethoxycinnamoyl) anthranilic acid], in data set [1] (setting [6]), the “lower abdominal pain and lower back pain during menstruation (NRS scores)” value was “trend of decrease; also recorded: effects of alleviating lower abdominal pain and lower back pain were observed”; the menstrual blood loss entry is “trend of decrease”. Also, the “adverse side effects from taking tranilast” value in data set [1] (Subject B) is “no adverse side effects”. Moreover, in data set [1] (setting [7]), the menstrual blood loss result is listed as “remained high” and the menstrual pain entry is given as “less menstrual pain”. The “pain and blood loss sensed by patient” value in data set [1] (Subject B, December, 100 mg/day) was “reduced pain and blood loss”. Further, in data set [1] (setting [8]), the menstrual blood loss result is reported as “Reduction” and the menstrual pain entry is given as “Reduction”. Besides, in data set [1] (setting [9]), the duration of menstruation result was “decreased significantly” and the symptoms of menorrhagia entry was “clearly improved”. Further, in data set [1] (setting [10]), the “lower abdominal pain and lower back pain during menstruation (NRS scores)” value was “clearly decrease; also recorded: decrease significantly”; the menstrual blood loss entry was “clearly decrease; also recorded: decreased significantly”. Also, the “pain at menstrual period” value in data set [1] (Subject H, organic dysmenorrhea, 100 mg three times per day orally, roughly one month) is reported as “Pain diminished”. Moreover, the need for analgesic entry in data set [1] (Subject H, roughly one month after beginning administration) is “no longer need to take an analgesic”. Further, the “menstrual pain and chronic pelvic pain when not menstruating (interview findings)” value in data set [1] (Subject I, examination Jun. 4, 2010) was “diminished and no longer interfered with their job”. For the same compound, in data set [1] (Subject I, organic dysmenorrhea, 100 mg three times per day orally), the “pain at first menstrual period after beginning administration” value is recorded as “the pain diminished”. For the same compound, the “analgesic use at first menstrual period after beginning administration” value in data set [1] (Subject I, before: multiple days with four analgesic tablets per day) was “one tablet of analgesic per day for 3 days”. The “pain during menstruation, last menstrual period of administration vs menstrual period at start (NRS average and maximum)” value in data set [1] (Subjects A, B, C, D, E, F and G) is “prominent decreases”. Moreover, the “interview findings by gynecological specialist on menstrual pain, final visit vs before start” value in data set [1] (Subjects A, C, D, E and F) is “menstrual pain diminished”. Besides, in data set [2], the cell morphology entry is recorded as “exhibited an epithelial form”; the “foci formed after TGFβ2 and TNFα” value is “alleviated”. Further, in the data set on EM-E6/E7/hTERT cells, the “expression level of N-cadherin” value was “inhibited the expression” and the “expression level of fibronectin” value is on record as “inhibited the expression”. Moreover, the Cmax in data set [3] was 2200 ng/mL. In data set [4] (1,4-dioxane), the “solubility in 1,4-dioxane” value is “soluble”. The “solubility in N,N-dimethylformamide” value in data set [4] (N,N-dimethylformamide) is “freely soluble”. For the same compound, the “solubility in diethyl ether” value in data set [4] (diethyl ether) is “very slightly soluble”. Further, the solubility in ethanol entry in data set [4] (ethanol) is given as “slightly soluble”. Further, in data set [4] (water), the solubility in water result is given as “practically insoluble”.
Turning to `C[C@]12CCC3=C4CCC(=O)C=C4CC[C@H]3[C@@H]1CC[C@@]2(O)CC#N` [dienogest], the “adverse effect in patient history leading to discontinuation” value in data set [5] is on record as “persistent abnormal genital bleeding”.
